From patent publication US6379670B1, “Methods for treatment of multiple sclerosis using peptide analogs of human myelin basic protein” (Neurocrine Biosciences, Inc., priority 1994, dated 2002)

Tested on: Lewis rats
Experiment: Induction of EAE by peptide analog
Type: in vivo, rat
Description: In addition, as a safety measure, but not essential to this invention, suitable peptide analogs may be tested for direct induction of EAE. As described in detail in Example 2, various amounts of peptide analogs are injected at the base of the tail of rats, and the rats examined daily for signs of EAE. A peptide analog which is not considered to cause EAE has a mean cumulative score of less than or equal to 1 over seven days when about 12 mg/kg or less in complete Freund's adjuvant is injected.
MBP peptide and peptide analogs were dissolved in phosphate-buffered saline (PBS) and emulsified with an equal volume of incomplete Freund's adjuvant supplemented with 4 mg/ml heat-killed Mycobacterium tuberculosis H37Ra in oil (Difco Laboratories, Inc., Detroit, Mich.). Rats were immunized subcutaneously at the base of the tail with 0.1-0.2 ml containing 500 μg of peptide in the emulsion and were monitored for clinical signs daily. EAE was scored on a scale of 0-4, as follows: 0, clinically normal; 1, flaccid tail; 2, hind limb weakness; 3, hind limb paralysis; 4, front and hind limbs affected.
The ability of peptide analogs to cause EAE is assessed in vivo. Rats were injected with MBP (87-99) or h88/A91 peptide analog as described in Example 2. Animals were monitored daily for evidence of EAE. Rats receiving MBP (87-99) had 100% incidence (18/18 rats) of EAE with a mean maximum clinical score of 2.4±0.2. In contrast, 0/12 rats receiving the peptide analog h88/A91 had EAE.

[1] = rats injected with 500 μg peptide in adjuvant

| Compound | induction of EAE by the peptide (rat, in vivo) | rats with EAE / rats injected [1] | incidence of EAE [1] | mean maximum clinical score (scale 0-4) |
| --- | --- | --- | --- | --- |
| CC[C@H](C)[C@H](NC(=O)[C@H](CC(N)=O)NC(=O)[C@H](C)NC(=O)[C@H](Cc1ccccc1)NC(=O)[C@H](Cc1ccccc1)NC(=O)[C@@H](Cc1c[nH]cn1)NC(=O)[C@@H](N)C(C)C)C(=O)N[C@H](C(=O)N[C@H](C(=O)N1CCC[C@H]1C(=O)N[C@@H](CCCNC(=N)N)C(=O)N[C@H](C(=O)N1CCC[C@H]1C(=O)O)[C@@H](C)O)[C@@H](C)O)C(C)C [h88/A91] | does not induce EAE | 0/12 |  |  |
| CC[C@H](C)[C@H](NC(=O)[C@H](CC(N)=O)NC(=O)[C@H](CCCCN)NC(=O)[C@H](Cc1ccccc1)NC(=O)[C@H](Cc1ccccc1)NC(=O)[C@H](Cc1c[nH]cn1)NC(=O)[C@@H](N)C(C)C)C(=O)N[C@H](C(=O)N[C@H](C(=O)N1CCC[C@H]1C(=O)N[C@@H](CCCNC(=N)N)C(=O)N[C@H](C(=O)N1CCC[C@H]1C(=O)O)[C@@H](C)O)[C@@H](C)O)C(C)C [MBP (87-99)] |  | 18/18 | 100% | 2.4±0.2 |
